# Measured values taken from PubChem BioAssay (NCI).
# Where “and” joins values, the source holds several entries; their conditions need not be identical. Identical values can stand only once.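 Values below derive from 48-hour exposures of cells grown in 96-well plates, with endpoints linearly interpolated between the two concentrations bracketing the appropriate inhibition level. Abbreviation: GI50, concentration required for 50% inhibition of growth. Definition used: TGI = concentration required for complete inhibition of growth.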
# Tests used:
# Test in all cases: NCI-60 cell line screen, 48 h
# T-47D breast = system: T-47D breast
# UACC-62 melanoma = system: UACC-62 melanoma
# A498 renal = system: A498 renal
# SR leukemia = system: SR leukemia
# MALME-3M melanoma = system: MALME-3M melanoma
# SK-MEL-28 melanoma = system: SK-MEL-28 melanoma
# OVCAR-8 ovarian = system: OVCAR-8 ovarian
# M14 melanoma = system: M14 melanoma
# HL-60(TB) leukemia = system: HL-60(TB) leukemia
# KM12 colon = system: KM12 colon
Compound,GI50 (T-47D breast),TGI (T-47D breast),GI50 (UACC-62 melanoma),TGI (UACC-62 melanoma),GI50 (A498 renal),TGI (A498 renal),GI50 (SR leukemia),TGI (SR leukemia),GI50 (MALME-3M melanoma),TGI (MALME-3M melanoma),GI50 (SK-MEL-28 melanoma),TGI (SK-MEL-28 melanoma),GI50 (OVCAR-8 ovarian),TGI (OVCAR-8 ovarian),GI50 (M14 melanoma),TGI (M14 melanoma),GI50 (HL-60(TB) leukemia),TGI (HL-60(TB) leukemia),GI50 (KM12 colon),TGI (KM12 colon)
COc1ccc2c(CN3CCC(CO)CC3)cc3cc4c(cc3c2c1)OCO4,418 nM,9170 nM,235 nM,539 nM,211 nM,554 nM,66.6 nM,712 nM,199 nM,799 nM,326 nM,1150 nM,84.4 nM,2190 nM,296 nM,1260 nM,286 nM,1720 nM,280 nM,4340 nM
O=C(Nc1cccc(NS(=O)(=O)c2ccc(F)cc2)c1)c1ccc(-c2ccccc2)cc1,2280 nM,7880 nM,1630 nM,6680 nM,4690 nM,25900 nM,2510 nM,10100 nM,2810 nM,10200 nM,3540 nM,16900 nM,2880 nM,17500 nM,3630 nM,17100 nM,3370 nM,12900 nM,3460 nM,15600 nM
O=C1NC(=O)[C@@H](c2cn3c4c(cccc24)CCC3)[C@@H]1c1c[nH]c2ccccc12,456 nM and 625 nM,> 10000 nM and 32400 nM,443 nM and 510 nM,> 10000 nM and 18300 nM,283 nM and 292 nM,> 2680 nM and 3220 nM,246 nM and 377 nM,> 10000 nM and 27600 nM,987 nM and 434 nM,> 10000 nM and 26600 nM,1040 nM and 660 nM,> 10000 nM and 19600 nM,492 nM and 561 nM,> 10000 nM and 14300 nM,310 nM and 372 nM,> 10000 nM and 10800 nM,348 nM and 350 nM,> 4060 nM and 6880 nM,382 nM and 433 nM,> 10000 nM and 6150 nM
